# Experimental data as given in patent US20150148311A1, “NON-SYSTEMIC TGR5 AGONISTS” (Ardelyx, Inc., priority 2011, published 2015).
# How the values were obtained:
# human TGR5 = biological target: T1, human TGR5 (Homo sapiens, UniProt Q8TDU6); assay: Cell-based TGR5 assay, HEK293 cells stably expressing human TGR5, cAMP by HTRF; details: HEK293 cells stably expressing human TGR5, 30 min at 37 C, 0.05 nM to 10 μM, read-out: pEC50 Human TGR5 (converted)
# T1 construct: expressed in transfected cells
# T1 sequence (Q8TDU6 1-330): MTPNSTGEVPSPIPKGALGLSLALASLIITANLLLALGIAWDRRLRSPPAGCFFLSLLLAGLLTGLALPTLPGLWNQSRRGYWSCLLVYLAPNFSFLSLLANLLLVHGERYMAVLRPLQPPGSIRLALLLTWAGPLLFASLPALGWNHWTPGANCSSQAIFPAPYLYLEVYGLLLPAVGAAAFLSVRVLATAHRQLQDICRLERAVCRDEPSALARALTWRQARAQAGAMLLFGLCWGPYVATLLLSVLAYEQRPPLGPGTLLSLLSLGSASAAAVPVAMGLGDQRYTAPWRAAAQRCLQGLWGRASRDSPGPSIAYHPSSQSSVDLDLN
# Experimental: (§1) Two primary cell based screens were performed. The first utilized HEK293 cells stably transfected to heterologously express human TGR5. The second screen used the human caecum carcinoma cell line NCI-H716 which endogenously expresses human TGR5. In both assays, cells are treated with candidate TGR5 activators and assessed for the increased intercellular levels of cAMP.
# HEK293 cells were transfected with a vector that expresses a gene encoding human TGR5, and a stable cell line was isolated using drug selection following standard techniques. Cells were grown overnight at 37° C./5% CO2 prior to assay.
# (§2) TGR5-mediated cAMP generation was measured using a homogeneous time resolved fluorescence (HTRF) detection method (Cisbio). Test compounds were dissolved in DMSO to a final concentration of 10 mM. Serial 3-fold dilutions of the stock solution were made in DMSO, and these solutions were diluted 100-fold into Hanks Balanced Salt Solution supplemented with 10 mM HEPES pH 7.4 and 0.5 mM isobutyl methylxanthine (IBMX). Prior to assay, culture medium was replaced with fresh medium, and test compounds diluted in HBSS/HEPES/IBMX were added to the cells and incubated at 37° C. for 30 minutes.
# (§3) Following incubation with test compounds, cAMP was detected through the successive addition of cAMP labeled with the modified allophyocyanin dye d2 (cAMP-d2) and cryptate-labeled anti-cAMP in lysis buffer, and reading HTRF per the manufacturer's instructions. A standard curve was used to convert the raw HTRF data into [cAMP].
# [1] = biological target: T2, endogenously expressed TGR5 in NCI H716 (Homo sapiens, UniProt Q8TDU6); assay: Cell-based TGR5 assay, NCI-H716 cells endogenously expressing human TGR5, cAMP by HTRF; details: 30 min at 37 C, 22 nM to 50 μM, read-out: pEC50 endogenously expressed TGR5 in NCI H716 (converted)
# T2 construct: human caecum carcinoma cell line NCI-H716 which endogenously expresses human TGR5; endogenous in cells; host or cells: NCI-H716
# T2 sequence (Q8TDU6 1-330): T1 sequence (Q8TDU6 1-330)
# Experimental: as §1, with “cAMP. […]” for “cAMP.”
# as §2, §3
Structure (SMILES),EC50 (human TGR5),EC50 [1]
"CC(c1cc(Cl)ccc1Cl)N1CCC[C@H]1C(=O)N1CCN(C2CC2)c2ccccc21 (single isomer, unassigned) [Example 67]",1260 to 50100 nM,1260 to 50100 nM
"CC(NCc1cc(Cl)ccc1Cl)C(=O)N1CCN(C2CC2)c2ccccc21 (stereo not drawn) [Example 7, 1-(4-cyclopropyl-3,4-dihydroquinoxalin-1(2H)-yl)-2-(2,5-dichlorobenzylamino)propan-1-one]",126 to 1000 nM,1260 to 50100 nM
"O=C(O)CCc1cc(Cl)c(OCC2(C(=O)N3CCN(C4CC4)c4ccccc43)CC2)cc1Cl [Example 33, 3-[2,5-dichloro-4-([1-[(4-cyclopropyl-1,2,3,4-tetrahydroquinoxalin-1-yl)carbonyl]cyclopropyl]methoxy)phenyl]propanoic acid]",1260 to 50100 nM,1260 to 50100 nM
"COc1ccccc1N(C)C(=O)C1(NCc2cc(Cl)ccc2Cl)CC1 [Example 38, 1-(2,5-dichlorobenzylamino)-N-(2-methoxyphenyl)-N-methylcyclopropanecarboxamide]",< 100 nM,< 100 nM
"O=C(N1CCN(C2CC2)c2ccccc21)C1(OCc2cc(Cl)ccc2Cl)CCC1 [Example 41, 1-cyclopropyl-4-([1-[(2,5-dichlorophenyl)methoxy]cyclobutyl]carbonyl)-1,2,3,4-tetrahydroquinoxaline]",< 100 nM,126 to 1000 nM
"O=C(N1CCN(C2CC2)c2ccccc21)C1(OCc2cc(Cl)ccc2C(F)(F)F)CC1 [Example 42, (1-(5-chloro-2-(trifluoromethyl)benzyloxy)cyclopropyl)(4-cyclopropyl-3,4-dihydroquinoxalin-1(2H)-yl)methanone]",126 to 1000 nM,126 to 1000 nM
"O=C(N1CCN(C2CC2)c2ccccc21)C1(OCc2cc(C(F)(F)F)ccc2Cl)CC1 [Example 43, 1-[(1-[[2-chloro-5-(trifluoromethyl)phenyl]methoxy]cyclopropyl)carbonyl]-4-cyclopropyl-1,2,3,4-tetrahydroquinoxaline]",< 100 nM,< 100 nM
"N#Cc1cccc(COC2(C(=O)N3CCN(C4CC4)c4ccccc43)CC2)c1 [Example 45, 3-((1-(4-cyclopropyl-1,2,3,4-tetrahydroquinoxaline-1-carbonyl)cyclopropoxy)methyl)benzonitrile]",126 to 1000 nM,1260 to 50100 nM
"O=C([C@@H]1CCCN1Cc1cc(Cl)ccc1C(F)(F)F)N1CCN(C2CC2)c2ccccc21 [Example 46, (S)-(1-(5-chloro-2-(trifluoromethyl)benzyl)pyrrolidin-2-yl)(4-cyclopropyl-3,4-dihydroquinoxaline-1(2H)-yl)methanone]",< 100 nM,126 to 1000 nM
"O=C([C@@H]1CCCN1Cc1c(Cl)cccc1Cl)N1CCN(C2CC2)c2ccccc21 [Example 47, (S)(4-cyclopropyl-3,4-dihydroquinoxaline-1(2H)-yl)(1-(2,6-dichlorobenzyl)pyrrolidin-2-yl) methanone]",> 10000 nM,1260 to 50100 nM
"CN(C[C@H](O)[C@@H](O)[C@H](O)[C@H](O)CO)C(=O)CCc1cc(Cl)c(CN2CCC[C@H]2C(=O)N2CCN(C3CC3)c3ccccc32)cc1Cl [Example 48, 3-(2,5-dichloro-4-(((S)-2-(4-cyclopropyl-1,2,3,4-tetrahydroquinoxaline-1carbonyl)pyrrolidin-1-yl)methyl)phenyl)-N-methyl-N-((2S,3R,4R,5R)-2,3,4,5,6-pentahydroxyhexyl)propanamide]",126 to 1000 nM,1260 to 50100 nM
CN(C[C@H](O)[C@@H](O)[C@H](O)[C@H](O)CO)C(=O)c1cnn(Cc2cc(Cl)c(CN3CSC[C@H]3C(=O)N3CCN(C4CC4)c4ccccc43)cc2Cl)c1 [Example 235],126 to 1000 nM,
O=C(NCCCc1cc(Cl)c(OCC2(C(=O)N3CCN(C4CC4)c4ccccc43)CC2)cc1Cl)NC[C@H](O)[C@@H](O)[C@H](O)[C@H](O)CO [Example 250],126 to 1000 nM,
O=C(NCCCCc1cc(Cl)c(OCC2(C(=O)N3CCN(C4CC4)c4ccccc43)CC2)cc1Cl)NC[C@H](O)[C@@H](O)[C@H](O)[C@H](O)CO [Example 251],126 to 1000 nM,
CN(C[C@H](O)[C@@H](O)[C@H](O)[C@H](O)CO)C(=O)NCCCc1cc(Cl)c(OCC2(C(=O)N3CCN(C4CC4)c4ccccc43)CC2)cc1Cl [Example 253],126 to 1000 nM,
CN(C[C@H](O)[C@@H](O)[C@H](O)[C@H](O)CO)C(=O)CCCCc1ccc(Cl)c(CNC2(C(=O)N3CCN(C4CC4)c4ccccc43)CC2)c1 [Example 260],126 to 1000 nM,
O=C(CCCCc1ccc(Cl)c(CNC2(C(=O)N3CCN(C4CC4)c4ccccc43)CC2)c1)NC[C@H](O)[C@@H](O)[C@H](O)[C@H](O)CO [Example 261],126 to 1000 nM,
CN(C[C@H](O)[C@@H](O)[C@H](O)[C@H](O)CO)C(=O)CCCCc1ccc(Cl)c(CNC2(C(=O)N3CCN(C4CC4)c4ccccc43)CC2)c1 [Example 262],1260 to 50100 nM,
O=C(CCCCc1ccc(Cl)c(CNC2(C(=O)N3CCN(C4CC4)c4ccccc43)CC2)c1)NC[C@H](O)[C@@H](O)[C@H](O)[C@H](O)CO [Example 263],1260 to 50100 nM,

# Now from value to compound:
EC50 (human TGR5),EC50 [1],Structure (SMILES)
126 to 1000 nM,,O=C([C@H]1C[C@H](F)CN1Cc1cc(Cl)ccc1C(F)(F)F)N1CCN(C2CC2)c2ccccc21 [Example 264]
1260 to 50100 nM,,CN(C[C@H](O)[C@@H](O)[C@H](O)[C@H](O)CO)C(=O)CCc1cc(Cl)c(CN2C[C@@H](F)C[C@H]2C(=O)N2CCN(C3CC3)c3ccccc32)cc1Cl [Example 266]
1260 to 50100 nM,,CN(C[C@H](O)[C@@H](O)[C@@H](O)[C@H](O)CO)C(=O)CCc1cc(Cl)c(CN2C[C@@H](F)C[C@H]2C(=O)N2CCN(C3CC3)c3ccccc32)cc1Cl [Example 267]
1260 to 50100 nM,,CN(C[C@H](O)[C@@H](O)[C@H](O)[C@H](O)CO)C(=O)CCCCc1ccc(C(F)(F)F)c(CN2CSC[C@H]2C(=O)N2CCN(C3CC3)c3ccccc32)c1 [Example 269]
126 to 1000 nM,,O=C([C@@H]1CSCN1Cc1cc(I)ccc1C(F)(F)F)N1CCN(C2CC2)c2ccccc21 [Example 270]
1260 to 50100 nM,,O=C(CCCCc1ccc(C(F)(F)F)c(CN2CSC[C@H]2C(=O)N2CCN(C3CC3)c3ccccc32)c1)NC[C@H](O)[C@@H](O)[C@H](O)[C@H](O)CO [Example 271]
1260 to 50100 nM,,O=C(CCCCc1ccc(C(F)(F)F)c(CNC2(C(=O)N3CCN(C4CC4)c4ccccc43)CC2)c1)NC[C@H](O)[C@@H](O)[C@H](O)[C@H](O)CO [Example 272]
126 to 1000 nM,,NCCCC[C@@H]1NC(=O)N(CCCCCc2cc(Cl)c(CN3CSC[C@H]3C(=O)N3CCN(C4CC4)c4ccccc43)cc2Cl)C1=O [Example 273]
126 to 1000 nM,,COC(=O)[C@H](CCCCN)NC(=O)NCCCCCc1cc(Cl)c(CN2CSC[C@H]2C(=O)N2CCN(C3CC3)c3ccccc32)cc1Cl [Example 274]
126 to 1000 nM,,COC(=O)[C@@H](CCCCN)NC(=O)NCCCCCc1cc(Cl)c(CN2CSC[C@H]2C(=O)N2CCN(C3CC3)c3ccccc32)cc1Cl [Example 275]
126 to 1000 nM,,CN(C[C@H](O)[C@@H](O)[C@H](O)[C@H](O)CO)C(=O)CN(CCCCCc1cc(Cl)c(CN2CSC[C@H]2C(=O)N2CCN(C3CC3)c3ccccc32)cc1Cl)CC(=O)O [Example 277]
126 to 1000 nM,,CN(C[C@H](O)C(O)[C@H](O)[C@H](O)CO)C(=O)CC[C@H](NC(=O)CCCCc1cc(Cl)c(CN2CSC[C@H]2C(=O)N2CCN(C3CC3)c3ccccc32)cc1Cl)C(=O)N(C)C[C@H](O)[C@@H](O)[C@H](O)[C@H](O)CO (stereo partly drawn) [Example 280]
< 100 nM,,O=C(O)CN1CCN(C(=O)NCCCCCc2cc(Cl)c(CN3CSC[C@H]3C(=O)N3CCN(C4CC4)c4ccccc43)cc2Cl)CC1 [Example 281]
1260 to 50100 nM,,O=C([C@@H]1CSCN1Cc1cc(Cl)c(CN2CSC[C@H]2C(=O)N2CCN(C3CC3)c3ccccc32)cc1Cl)N1CCN(C2CC2)c2ccccc21 [Example 284]
126 to 1000 nM,,O=C(NC[C@H](O)[C@@H](O)[C@H](O)[C@H](O)CO)c1ccc(OCCCc2cc(Cl)c(CN3CSC[C@H]3C(=O)N3CCN(C4CC4)c4ccccc43)cc2Cl)cc1 [Example 286]
126 to 1000 nM,,CN(C(=O)[C@@H]1CSCN1Cc1cc(Cl)ccc1Cl)c1ccccc1OC1CC1 [Example 289]
126 to 1000 nM,,CN(C(=O)[C@@H]1CSCN1Cc1cc(Cl)ccc1Cl)c1ccccc1OC1CCC1 [Example 290]
1260 to 50100 nM,,O=C(C1SCCN1Cc1cc(Cl)ccc1Cl)N1CCN(C2CC2)c2ccccc21 (stereo not drawn) [Example 291]
